Laboratory results: patent US7902195B2, “Pyridine [3,4-b] pyrazinones” (Pharmacia & Upjohn Company LLC, priority 2006, dated 2011)

Target: T1, PDE5 enzyme isolated from human platelets (Homo sapiens, UniProt O76074)
T1 construct: The PDE5 enzyme for use in the assay can be obtained from human platelets; from tissue; host or cells: human platelets
Assay: Alternative human platelet PDE5 enzyme inhibition scintillation proximity assay (Method 2)
Type: biochemical
Details: cGMP substrate 50 nM, 60 minutes at room temperature
Excerpt: The IC50 of a test compound can be measured using an in vitro assay using PDE5 enzyme isolated from human platelets. The IC50 is the concentration of test compound required to inhibit the hydrolysis of cGMP to GMP by the PDE5 enzyme by 50% relative to the activity of uninhibited controls. The PDE5 enzyme for use in the assay can be obtained from human platelets by appropriate modification of the method of Thompson, W J et al.; Biochemistry 18(23), 5228-5237, 1979, as described by Ballard S A et al.; J. Urology 159(6), 2164-2171, 1998. The PDE5 enzyme so obtained can be used to catalyze the hydrolysis of [^3H]cGMP (Amersham Biosciences) to 5′ nucleotide [^3H]GMP. The [^3H]GMP binds to yttrium silicate SPA beads (Amersham Biosciences) and is detected by scintillation counting. More specifically, the effect of a test compound at different concentrations can be evaluated in the assay by contacting the compound with a fixed amount of PDE5 enzyme in the presence of substrate (cGMP […] in a 3:1 ratio unlabelled to [^3H]-labeled). Scintillation counting can be used as described above to determine relative PDE5 enzyme activity. The inhibition of PDE5 enzyme activity is then calculated relative to total PDE5 enzyme activity of uninhibited controls.
Method 2: Alternative Human Platelet PDE5 Enzyme Inhibition Scintillation Proximity Assay
PDE5 IC50 Assay: 96-Well Microtiter Plate Format
Buffer A: 20 mM Tris-HCl, 5 mM MgCl2, pH 7.4
Buffer B: 2 mg/ml BSA in Buffer A (enzyme buffer)
cGMP substrate: Final concentration of 50 nM in assay
The amount of ^3H-labeled substrate added depends upon the specific activity of [^3H]cGMP, and it is diluted in Buffer A.
PDE enzyme: Prepared in Buffer B. The dilution factor is determined by enzyme activity.
SPA beads: 4 mg/ml suspension prepared in dH2O.
Stocks of standard and test compound are prepared at 2 mM in 100% DMSO. The test compound is serially diluted in a dilution plate using an 8-point ⅕ log dilution format such that the starting concentration in the assay is 2 μM for an initial IC50 screen. 27 μl of Buffer A are added to the wells of the assay plates. From the dilution plate, 3 μl of diluted compound is delivered in duplicate or 3 μl of 100% DMSO (for positive and negative controls) are added. 30 μl of enzyme are added. For the negative control wells, Buffer B is substituted in place of the enzyme. 30 μl of labeled substrate are added to all wells.
After incubating for 60 minutes at room temperature, the reaction is stopped with the addition of 30 μl of the yttrium silicate beads. These beads are dense and require constant agitation while being added to the plate. The plates are sealed and shaken on a plate shaker for fifteen minutes to allow the beads to bind the GMP product.
After allowing the beads to settle for 30 minutes, plates are read on a NXT TopCount scintillation counter and the data are analyzed as follows. Percent inhibition values are calculated using the means of the 0% and 100% controls on each plate. The estimates of the 4-parameters of the logistic, sigmoid dose-response model are then calculated using the well-level percent inhibition value for the compound. The formula for the four-parameter logistic model may be expressed as Y=((a−d)/(1+(X/c)^b))+d, where Y is the response, X is the concentration, a is the lower asymptote (minimum response), d is the upper asymptote (maximum response), c is the model IC50 (in the same units as X), and b is the slope (as described in De Lean, A., P. J. Munson, and D. Rodbard (“Simultaneous analysis of families of sigmoidal curves: application to bioassay, radioligand assay, and physiological dose-response curves.” Am. J. Physiol. 235(2): E97-E102, 1978). These estimates are used to calculate the concentration that corresponds to 50% inhibition.
Compounds were tested in accordance with Method 2 above yielding the IC50 values described in Table C.

Row | Molecule | IC50
1 | CCCOCCn1c(=O)c(N2CCN(CCO)CC2)nc2cnc(-c3ccc(C)cc3)cc21 [Example 27, 3-(4-(2-hydroxyethyl)piperazin-1-yl)-1-(2-propoxyethyl)-7-p-tolylpyrido[3,4-b]pyrazin-2(1H)-one] | 9.31 nM
2 | CCCOCCn1c(=O)c(N2CCN(CCO)CC2)nc2cnc(-c3cccnc3)cc21 [Example 31, 3-(4-(2-hydroxyethyl)piperazin-1-yl)-1-(2-propoxyethyl)-7-(pyridin-3-yl)pyrido[3,4-b]pyrazin-2(1H)-one] | 45.8 nM
3 | CCCOCCn1c(=O)c(N2CCN(CCO)CC2)nc2cnc(-c3ccc(OC(C)C)cc3)cc21 [Example 21, 3-(4-(2-hydroxyethyl)piperazin-1-yl)-7-(4-isopropoxyphenyl)-1-(2-propoxyethyl)pyrido[3,4-b]pyrazin-2(1H)-one] | 413 nM
4 | CCCOCCn1c(=O)c(N2CCN(CC(=O)O)CC2)nc2cnc(-c3ccc(OC)nc3)cc21 [Example 8, {4-[7-(6-methoxypyridin-3-yl)-2-oxo-1-(2-propoxyethyl)-1,2-dihydropyrido[3,4-b]pyrazin-3-yl]piperazin-1-yl}acetic acid] | 0.517 nM
5 | CCCOCCn1c(=O)c(N2CCC(C(N)=O)CC2)nc2cnc(-c3ccc(OC)nc3)cc21 [Example 41, 1-(1,2-dihydro-7-(6-methoxypyridin-3-yl)-2-oxo-1-(2-propoxyethyl)pyrido[3,4-b]pyrazin-3-yl)piperidine-4-carboxamide] | 0.249 nM
6 | CCCOCCn1c(=O)c(N2CCN(CCO)CC2)nc2cnc(-c3cccc(OC)c3)cc21 [Example 29, 3-(4-(2-hydroxyethyl)piperazin-1-yl)-7-(3-methoxyphenyl)-1-(2-propoxyethyl)pyrido[3,4-b]pyrazin-2(1H)-one] | 3.07 nM
7 | CCCOCCn1c(=O)c(N2CCN(CCO)CC2)nc2cnc(-c3cccc(OCC)c3)cc21 [Example 32, 7-(3-ethoxyphenyl)-3-(4-(2-hydroxyethyl)piperazin-1-yl)-1-(2-propoxyethyl)pyrido[3,4-b]pyrazin-2(1H)-one] | 158 nM
8 | CCCOCCn1c(=O)c(N2CCN(CCO)CC2)nc2cnc(-c3ccccc3O)cc21 [Example 37, 3-(4-(2-hydroxyethyl)piperazin-1-yl)-7-(2-hydroxyphenyl)-1-(2-propoxyethyl)pyrido[3,4-b]pyrazin-2(1H)-one] | 18.1 nM
9 | CCCOCCn1c(=O)c(N2CCCN(CCCO)CC2)nc2cnc(-c3ccc(OC)nc3)cc21 [Example 48, 3-(4-(3-hydroxypropyl)-1,4-diazepan-1-yl)-7-(6-methoxypyridin-3-yl)-1-(2-propoxyethyl)pyrido[3,4-b]pyrazin-2(1H)-one] | 1.07 nM

More lines, in order of falling IC50, values ahead:

Row | IC50 | Molecule
10 | 1790 nM | CCCOCCn1c(=O)c(N2CCN(CCO)CC2)nc2cnc(-c3ccc(CO)cc3)cc21 [Example 23, 3-(4-(2-hydroxyethyl)piperazin-1-yl)-7-(4-(hydroxymethyl)phenyl)-1-(2-propoxyethyl)pyrido[3,4-b]pyrazin-2(1H)-one]
11 | 1190 nM | 7-(4-(dimethylamino)-2-methylphenyl)-3-(4-(2-hydroxyethyl)piperazin-1-yl)-1-(2-propoxyethyl)pyrido[3,4-b]pyrazin-2(1H)-one [Example 15]
12 | 423 nM | CCCOCCn1c(=O)c(N2CCN(CCO)CC2)nc2cnc(-c3cccc(C)c3)cc21 [Example 36, 3-(4-(2-hydroxyethyl)piperazin-1-yl)-1-(2-propoxyethyl)-7-m-tolylpyrido[3,4-b]pyrazin-2(1H)-one]
13 | 43.1 nM | CCCOCCn1c(=O)c(N2CCN(CCO)CC2)nc2cnc(-c3ccc(C(C)=O)s3)cc21 [Example 28, 7-(5-acetylthiophen-2-yl)-3-(4-(2-hydroxyethyl)piperazin-1-yl)-1-(2-propoxyethyl)pyrido[3,4-b]pyrazin-2(1H)-one]
14 | 42.2 nM | CCCOCCn1c(=O)c(N2CCN(CCO)CC2)nc2cnc(-c3ccccc3F)cc21 [Example 38, 7-(2-fluorophenyl)-3-(4-(2-hydroxyethyl)piperazin-1-yl)-1-(2-propoxyethyl)pyrido[3,4-b]pyrazin-2(1H)-one]
15 | 1.87 nM | CCCOCCn1c(=O)c(N2CCN(CCO)CC2)nc2cnc(-c3ccc(F)c(C)c3)cc21 [Example 25, 7-(4-fluoro-3-methylphenyl)-3-(4-(2-hydroxyethyl)piperazin-1-yl)-1-(2-propoxyethyl)pyrido[3,4-b]pyrazin-2(1H)-one]
16 | 0.721 nM | CCCOCCn1c(=O)c(N2CCCN(CCO)CC2)nc2cnc(-c3ccc(OC)nc3)cc21 [Example 12, 3-[4-(2-hydroxyethyl)-1,4-diazepan-1-yl]-7-(6-methoxypyridin-3-yl)-1-(2-propoxyethyl)pyrido[3,4-b]pyrazin-2(1H)-one]
17 | 0.33 nM | CCCOCCn1c(=O)c(N2CCN([C@@H](C)[C@@H](C)O)CC2)nc2cnc(-c3ccc(OC)nc3)cc21 [Example 44, 3-(4-((2S,3R)-3-hydroxybutan-2-yl)piperazin-1-yl)-7-(6-methoxypyridin-3-yl)-1-(2-propoxyethyl)pyrido[3,4-b]pyrazin-2(1H)-one]
18 | 0.306 nM | CCCOCCn1c(=O)c(N2CCN(C[C@H](C)O)CC2)nc2cnc(-c3ccc(OC)nc3)cc21 [Example 46, 3-(4-((S)-2-hydroxypropyl)piperazin-1-yl)-7-(6-methoxypyridin-3-yl)-1-(2-propoxyethyl)pyrido[3,4-b]pyrazin-2(1H)-one]
19 | 0.295 nM | CCCOCCn1c(=O)c(N2CCN([C@H](C)[C@@H](C)O)CC2)nc2cnc(-c3ccc(OC)nc3)cc21 [Example 45, 3-(4-((2R,3R)-3-hydroxybutan-2-yl)piperazin-1-yl)-7-(6-methoxypyridin-3-yl)-1-(2-propoxyethyl)pyrido[3,4-b]pyrazin-2(1H)-one]
20 | 0.226 nM | CCCOCCn1c(=O)c(N2CCN(C[C@@H](C)O)CC2)nc2cnc(-c3ccc(OC)nc3)cc21 [Example 47, 3-(4-((R)-2-hydroxypropyl)piperazin-1-yl)-7-(6-methoxypyridin-3-yl)-1-(2-propoxyethyl)pyrido[3,4-b]pyrazin-2(1H)-one]
21 | 0.225 nM | CCCOCCn1c(=O)c(N2CCCC(O)C2)nc2cnc(-c3ccc(OC)nc3)cc21 (centres unmarked) [Example 4, 3-(3-hydroxypiperidin-1-yl)-7-(6-methoxypyridin-3-yl)-1-(2-propoxyethyl)pyrido[3,4-b]pyrazin-2(1H)-one]
22 | 0.203 nM | CCCOCCn1c(=O)c(N2CCN(CCO)CC2)nc2cnc(-c3ccc(OC)nc3)cc21 [Example 5, 3-[4-(2-hydroxyethyl)piperazin-1-yl]-7-(6-methoxypyridin-3-yl)-1-(2-propoxyethyl)pyrido[3,4-b]pyrazin-2(1H)-one]
23 | 0.083 nM | CCCOCCn1c(=O)c(N2CCN(CC(=O)OC(C)(C)C)CC2)nc2cnc(-c3ccc(OC)nc3)cc21 [Example 7, tert-butyl {4-[7-(6-methoxypyridin-3-yl)-2-oxo-1-(2-propoxyethyl)-1,2-dihydropyrido[3,4-b]pyrazin-3-yl]piperazin-1-yl}acetate]
